Patent US20230257396A1, “MACROCYCLES AND THEIR USE” (BLOSSOMHILL THERAPEUTICS, INC., priority 2020, published 2023)

Columns and labels:
Experiment in all cases: KINOMEscan kinase binding assay (Eurofins/DiscoveRx), % Ctrl
Settings in all cases: 1 μM
[1] = target: T1, kinases (Homo sapiens, UniProt P00519)
T1 construct: purchased Eurofins/DiscoveRx; host or cells: E. coli BL21-derived host (T7 phage display) for most kinases; HEK-293 for the rest
Procedure: (§1) Kinase binding assays were performed at Eurofins/DiscoveRx using the general KINOMEscan Protocol (Fabian, M. A. et al., “A small molecule-kinase interaction map for clinical kinase inhibitors,” Nat. Biotechnol. 2005, 23(3):329-36). For most assays, kinase-tagged T7 phage strains were prepared in an E. coli host derived from the BL21 strain. E. coli were grown to log-phase and infected with T7 phage and incubated with shaking at 32° C. until lysis. The lysates were centrifuged and filtered to remove cell debris. The remaining kinases were produced in HEK-293 cells and subsequently tagged with DNA for qPCR detection. Streptavidin-coated magnetic beads were treated with biotinylated small molecule ligands for 30 minutes at room temperature to generate affinity resins for kinase assays. The liganded beads were blocked with excess biotin and washed with blocking buffer (SeaBlock (Pierce), 1% BSA, 0.05% Tween 20, 1 mM DTT) to remove unbound ligand and to reduce nonspecific binding. Binding reactions were assembled by combining kinases, liganded affinity beads, and test compounds in 1×binding buffer (20% SeaBlock, 0.17×PBS, 0.05% Tween 20, 6 mM DTT). All reactions were performed in polystyrene 96-well plates in a final volume of 0.135 mL. The assay plates were incubated at room temperature with shaking for 1 hour and the affinity beads were washed with washbuffer (1×PBS, 0.05% Tween 20). The beads were then re-suspended in elution buffer (1× PBS, 0.05% Tween 20, 0.5 μM non-biotinylated affinity ligand) and incubated at room temperature with shaking for 30 minutes. The kinase concentration in the eluates was measured by qPCR. Results for compounds tested in this assay at a given concentration are reported as “% Ctrl”, where lower numbers indicate stronger binding in the matrix.
(§2) (test compound signal-positive control signal)/(negative control signal-positive control signal) X100

[2] = target: T2, kinases (Homo sapiens, UniProt P00519, F317I)
T2 construct: purchased Eurofins/DiscoveRx; host or cells: E. coli BL21-derived host (T7 phage display) for most kinases; HEK-293 for the rest
Procedure: as §1, §2

[3] = target: T3, kinases (Homo sapiens, UniProt P00519, Q252H)
T3 construct: purchased Eurofins/DiscoveRx; host or cells: E. coli BL21-derived host (T7 phage display) for most kinases; HEK-293 for the rest
Procedure: as §1, §2

[4] = target: T4, kinases (Homo sapiens, UniProt P00533, DEL746-750)
T4 construct: purchased Eurofins/DiscoveRx; host or cells: E. coli BL21-derived host (T7 phage display) for most kinases; HEK-293 for the rest
Procedure: as §1, §2

[5] = target: T5, kinases (Homo sapiens, UniProt P00533, G719C)
T5 construct: purchased Eurofins/DiscoveRx; host or cells: E. coli BL21-derived host (T7 phage display) for most kinases; HEK-293 for the rest
Procedure: as §1, §2

[6] = target: T6, kinases (Homo sapiens, UniProt P00533, L858R)
T6 construct: purchased Eurofins/DiscoveRx; host or cells: E. coli BL21-derived host (T7 phage display) for most kinases; HEK-293 for the rest
Procedure: as §1, §2

[7] = target: T7, kinases (Homo sapiens, UniProt P00533, L858R/T790M)
T7 construct: purchased Eurofins/DiscoveRx; host or cells: E. coli BL21-derived host (T7 phage display) for most kinases; HEK-293 for the rest
Procedure: as §1, §2

[8] = target: T8, kinases (Homo sapiens, UniProt P07949)
T8 construct: purchased Eurofins/DiscoveRx; host or cells: E. coli BL21-derived host (T7 phage display) for most kinases; HEK-293 for the rest
Procedure: as §1, §2

[9] = target: T9, kinases (Homo sapiens, UniProt P10721, D816V)
T9 construct: purchased Eurofins/DiscoveRx; host or cells: E. coli BL21-derived host (T7 phage display) for most kinases; HEK-293 for the rest
Procedure: as §1, §2

[10] = target: T10, kinases (Homo sapiens, UniProt P10721, V559D/V654A)
T10 construct: purchased Eurofins/DiscoveRx; host or cells: E. coli BL21-derived host (T7 phage display) for most kinases; HEK-293 for the rest
Procedure: as §1, §2

[11] = target: T11, kinases (Homo sapiens, UniProt P36888, D835V)
T11 construct: purchased Eurofins/DiscoveRx; host or cells: E. coli BL21-derived host (T7 phage display) for most kinases; HEK-293 for the rest
T11 sequence (P36888 27-993 D835V): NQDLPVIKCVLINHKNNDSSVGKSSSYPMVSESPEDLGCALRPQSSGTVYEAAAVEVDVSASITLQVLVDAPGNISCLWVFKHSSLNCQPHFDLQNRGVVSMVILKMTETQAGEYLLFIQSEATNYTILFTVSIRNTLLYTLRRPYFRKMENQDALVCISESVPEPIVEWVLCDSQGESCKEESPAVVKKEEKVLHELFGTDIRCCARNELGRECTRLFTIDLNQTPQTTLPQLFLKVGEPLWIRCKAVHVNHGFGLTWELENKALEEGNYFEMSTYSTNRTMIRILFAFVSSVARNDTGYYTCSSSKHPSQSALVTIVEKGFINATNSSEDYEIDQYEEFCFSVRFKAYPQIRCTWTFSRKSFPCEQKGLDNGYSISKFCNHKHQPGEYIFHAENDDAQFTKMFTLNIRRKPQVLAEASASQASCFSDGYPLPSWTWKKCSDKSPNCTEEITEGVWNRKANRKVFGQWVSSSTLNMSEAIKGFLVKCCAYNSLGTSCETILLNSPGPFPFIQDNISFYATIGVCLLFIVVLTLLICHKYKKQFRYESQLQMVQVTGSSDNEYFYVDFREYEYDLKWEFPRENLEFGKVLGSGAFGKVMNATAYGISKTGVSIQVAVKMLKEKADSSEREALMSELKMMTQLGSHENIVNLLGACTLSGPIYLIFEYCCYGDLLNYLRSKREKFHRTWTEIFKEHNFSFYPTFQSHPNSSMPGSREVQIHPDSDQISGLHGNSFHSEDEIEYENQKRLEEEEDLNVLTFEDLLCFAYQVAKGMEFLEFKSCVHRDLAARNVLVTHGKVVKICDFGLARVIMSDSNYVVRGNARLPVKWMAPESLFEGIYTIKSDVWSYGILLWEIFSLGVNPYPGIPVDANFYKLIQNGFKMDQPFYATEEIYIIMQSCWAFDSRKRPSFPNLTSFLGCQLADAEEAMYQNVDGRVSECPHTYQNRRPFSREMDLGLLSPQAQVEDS
Procedure: as §1, §2

T10 sequence (P10721 26-976 V559D/V654A): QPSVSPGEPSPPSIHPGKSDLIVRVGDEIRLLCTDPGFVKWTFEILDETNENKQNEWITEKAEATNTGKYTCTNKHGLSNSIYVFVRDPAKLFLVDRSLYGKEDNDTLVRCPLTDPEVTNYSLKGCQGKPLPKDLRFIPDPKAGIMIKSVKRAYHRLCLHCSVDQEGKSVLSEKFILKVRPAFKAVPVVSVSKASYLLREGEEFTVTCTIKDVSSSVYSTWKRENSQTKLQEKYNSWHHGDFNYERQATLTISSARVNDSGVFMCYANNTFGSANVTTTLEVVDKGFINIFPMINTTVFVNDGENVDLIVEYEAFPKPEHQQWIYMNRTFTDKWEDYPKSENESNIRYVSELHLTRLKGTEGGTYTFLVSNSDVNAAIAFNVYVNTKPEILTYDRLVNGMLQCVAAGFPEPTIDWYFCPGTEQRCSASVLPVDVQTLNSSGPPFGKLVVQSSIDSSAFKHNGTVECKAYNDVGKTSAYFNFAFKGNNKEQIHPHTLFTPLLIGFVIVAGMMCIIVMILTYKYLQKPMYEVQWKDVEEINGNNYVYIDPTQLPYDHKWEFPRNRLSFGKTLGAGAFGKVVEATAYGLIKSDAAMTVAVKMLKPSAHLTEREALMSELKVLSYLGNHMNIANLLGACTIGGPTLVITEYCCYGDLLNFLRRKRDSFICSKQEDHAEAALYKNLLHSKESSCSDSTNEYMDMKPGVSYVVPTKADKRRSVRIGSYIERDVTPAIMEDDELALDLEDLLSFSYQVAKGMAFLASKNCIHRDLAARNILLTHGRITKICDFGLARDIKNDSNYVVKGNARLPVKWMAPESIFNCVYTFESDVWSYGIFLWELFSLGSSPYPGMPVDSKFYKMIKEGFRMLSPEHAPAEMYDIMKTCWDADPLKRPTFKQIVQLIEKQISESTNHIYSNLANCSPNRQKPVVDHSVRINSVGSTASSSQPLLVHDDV
T8 sequence (P07949 29-1114): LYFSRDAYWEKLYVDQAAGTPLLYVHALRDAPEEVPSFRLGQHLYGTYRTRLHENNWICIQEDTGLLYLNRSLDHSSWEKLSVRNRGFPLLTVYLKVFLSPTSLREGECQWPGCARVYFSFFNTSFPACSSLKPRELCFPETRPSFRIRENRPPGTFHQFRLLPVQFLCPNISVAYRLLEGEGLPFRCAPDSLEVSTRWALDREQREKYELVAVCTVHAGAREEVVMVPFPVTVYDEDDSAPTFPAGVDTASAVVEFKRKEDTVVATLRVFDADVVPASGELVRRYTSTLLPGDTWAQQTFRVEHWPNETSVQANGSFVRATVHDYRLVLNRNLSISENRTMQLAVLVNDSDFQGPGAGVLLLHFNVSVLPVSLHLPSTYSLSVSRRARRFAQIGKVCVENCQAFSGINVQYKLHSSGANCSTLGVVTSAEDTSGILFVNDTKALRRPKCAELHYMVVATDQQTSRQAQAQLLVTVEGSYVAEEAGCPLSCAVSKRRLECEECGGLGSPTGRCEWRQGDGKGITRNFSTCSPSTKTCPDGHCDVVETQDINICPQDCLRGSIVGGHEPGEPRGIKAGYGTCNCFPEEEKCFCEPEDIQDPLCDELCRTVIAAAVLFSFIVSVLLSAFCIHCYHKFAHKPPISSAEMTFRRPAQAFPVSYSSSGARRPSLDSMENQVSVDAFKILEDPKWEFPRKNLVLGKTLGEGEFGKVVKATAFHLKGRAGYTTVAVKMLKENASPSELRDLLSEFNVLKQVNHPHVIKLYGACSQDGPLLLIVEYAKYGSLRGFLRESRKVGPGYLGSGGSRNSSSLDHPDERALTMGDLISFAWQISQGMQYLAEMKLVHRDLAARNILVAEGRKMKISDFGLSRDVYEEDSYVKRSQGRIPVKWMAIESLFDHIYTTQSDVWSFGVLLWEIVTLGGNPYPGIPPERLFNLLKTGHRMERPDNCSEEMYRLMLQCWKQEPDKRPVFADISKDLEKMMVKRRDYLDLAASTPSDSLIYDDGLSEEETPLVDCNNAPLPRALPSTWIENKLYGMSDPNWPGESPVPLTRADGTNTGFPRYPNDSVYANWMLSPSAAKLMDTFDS
T9 sequence (P10721 26-976 D816V): as the sequence (P10721 26-976 V559D/V654A) above, with D534V, A629V, D791V counted along it

Row | % Ctrl, ABL1-nonphosphorylated ([1]; ABL1-nonphosphorylated) | % Ctrl, ABL1-phosphorylated ([1]; ABL1-phosphorylated) | % Ctrl, ABL1(F317I)-nonphosphorylated ([2]; ABL1(F317I)-nonphosphorylated) | % Ctrl, ABL1(F317I)-phosphorylated ([2]; ABL1(F317I)-phosphorylated) | % Ctrl, ABL1(Q252H)-nonphosphorylated ([3]; ABL1(Q252H)-nonphosphorylated) | % Ctrl, ABL1(Q252H)-phosphorylated ([3]; ABL1(Q252H)-phosphorylated) | % Ctrl, EGFR(E746-A750del) ([4]; EGFR(E746-A750del)) | % Ctrl, EGFR(G719C) ([5]; EGFR(G719C)) | % Ctrl, EGFR(L858R) ([6]; EGFR(L858R)) | % Ctrl, EGFR(L858R, T790M) ([7]; EGFR(L858R, T790M)) | % Ctrl, RET ([8]; RET) | % Ctrl, KIT(D816V) ([9]; KIT(D816V)) | % Ctrl, KIT(V559D, V654A) ([10]; KIT(V559D, V654A)) | % Ctrl, FLT3(D835V) ([11]; FLT3(D835V)) | SMILES | further results
1 | 46 % Ctrl | 38 % Ctrl | 84 % Ctrl | 70 % Ctrl | 32 % Ctrl | 18 % Ctrl | 89 % Ctrl | 89 % Ctrl | 89 % Ctrl | 92 % Ctrl | 27 % Ctrl | 56 % Ctrl | 64 % Ctrl | 3.9 % Ctrl | Cc1cc2c([nH]1)/C=C1\C(=O)Nc3cc(Cl)c(cc31)OCCO[C@@H](C(=O)NC1CCNCC1)CN(C)C2=O [Ex. 134, [7R,16a(17)Z]-19-chloro-2,5-dimethyl-4,16-dioxo-N-(piperidin-4-yl)-4,5,6,7,9,10,15,16-octahydro-1H-12,14-(ethaneidylidene)dipyrrolo[3,2-i:3′,4′-l][1,4,7]dioxazacyclopentadecine-7-carboxamide] | –
2 | 83 % Ctrl | 100 % Ctrl | 100 % Ctrl | 100 % Ctrl | 92 % Ctrl | 100 % Ctrl | 100 % Ctrl | 90 % Ctrl | 94 % Ctrl | 92 % Ctrl | 91 % Ctrl | 100 % Ctrl | 79 % Ctrl | 91 % Ctrl | Cc1cc2c([nH]1)/C=C1\C(=O)Nc3cnc(cc31)-c1cnn(C)c1COCCNC2=O [Ex.123, [3a(4)Z]-6,14-dimethyl-10,11,13,14-tetrahydro-2H-17,1-(azenometheno)pyrazolo[4,3-m]dipyrrolo[3,2-f:3′,4′-i][1,4]oxazacyclopentadecine-3,8(5H,9H)-dione] | –
3 | 7.1 % Ctrl | 56 % Ctrl | 54 % Ctrl | 75 % Ctrl | 9 % Ctrl | 63 % Ctrl | 36 % Ctrl | 88 % Ctrl | 93 % Ctrl | 17 % Ctrl | 34 % Ctrl | 38 % Ctrl | 93 % Ctrl | 0.25 % Ctrl | Cc1cc2c([nH]1)/C=C1\C(=O)Nc3ccc(cc31)-c1ccnn1CCOCCN(C)C2=O [Ex. 41, [19a(20)Z]-2,5-dimethyl-6,7,9,10-tetrahydro-1H-15,17-(ethanediylidene)pyrazolo[1,5-d]dipyrrolo[3,4-h:2′,3′-k][1,4,14]oxadiazacyclohexadecine-4,19(5H,18H)-dione] | –
4 | – | – | – | – | – | – | – | – | – | – | – | – | – | – | CN1CCOCCOc2cc3c(cc2Cl)NC(=O)/C3=C\c2[nH]ccc2C1=O [Ex. 143, [16a(17)Z]-19-chloro-2,5-dimethyl-6,7,9,10-tetrahydro-1H-12,14-(ethanediylidene)dipyrrolo[3,2-i:3′,4′-l][1,4,7]oxathiazacyclopentadecine-4,16(5H,15H)-dione] | % Ctrl, ABL1-nonphosphorylated ([1]; target ABL1-nonphosphorylated): 6 % Ctrl; % Ctrl, ABL1-phosphorylated ([1]; target ABL1-phosphorylated): 11 % Ctrl; % Ctrl, ABL1(F317I)-nonphosphorylated ([2]; target ABL1(F317I)-nonphosphorylated): 46 % Ctrl; % Ctrl, ABL1(F317I)-phosphorylated ([2]; target ABL1(F317I)-phosphorylated): 26 % Ctrl; % Ctrl, ABL1(Q252H)-nonphosphorylated ([3]; target ABL1(Q252H)-nonphosphorylated): 4.1 % Ctrl; % Ctrl, ABL1(Q252H)-phosphorylated ([3]; target ABL1(Q252H)-phosphorylated): 5.2 % Ctrl; % Ctrl, EGFR(E746-A750del) ([4]; target EGFR(E746-A750del)): 65 % Ctrl; % Ctrl, EGFR(G719C) ([5]; target EGFR(G719C)): 100 % Ctrl; % Ctrl, EGFR(L858R) ([6]; target EGFR(L858R)): 86 % Ctrl; % Ctrl, EGFR(L858R, T790M) ([7]; target EGFR(L858R, T790M)): 75 % Ctrl; % Ctrl, RET ([8]; target RET): 0.6 % Ctrl; % Ctrl, KIT(D816V) ([9]; target KIT(D816V)): 34 % Ctrl; % Ctrl, KIT(V559D, V654A) ([10]; target KIT(V559D, V654A)): 33 % Ctrl; % Ctrl, FLT3(D835V) ([11]; target FLT3(D835V)): 0.3 % Ctrl
5 | 0 % Ctrl | 25 % Ctrl | 22 % Ctrl | 89 % Ctrl | 0 % Ctrl | 34 % Ctrl | 100 % Ctrl | 100 % Ctrl | 98 % Ctrl | 100 % Ctrl | 63 % Ctrl | 59 % Ctrl | 67 % Ctrl | 3.7 % Ctrl | Cc1cc2c([nH]1)/C=C1\C(=O)Nc3ccc(cc31)O[C@@H](C)COCCN(C)C2=O [Ex. 92, [10S,16a(17)Z]-2,5,10-trimethyl-6,7,9,10-tetrahydro-1H-12,14-(ethanediylidene)dipyrrolo[3,2-i:3′,4′-l][1,4,7]dioxazacyclopentadecine-4,16(5H,15H)-dione] | –
6 | 65 % Ctrl | 68 % Ctrl | 93 % Ctrl | 89 % Ctrl | 61 % Ctrl | 49 % Ctrl | 100 % Ctrl | 92 % Ctrl | 95 % Ctrl | 95 % Ctrl | 24 % Ctrl | 34 % Ctrl | 83 % Ctrl | 2.3 % Ctrl | Cc1cc2c([nH]1)/C=C1\C(=O)Nc3cc(Cl)c(cc31)OCCO[C@@H](C(=O)NC1CNC1)CN(C)C2=O [Ex. 133, [7R,16a(17)Z]-N-(azetidin-3-yl)-19-chloro-2,5-dimethyl-4,16-dioxo-4,5,6,7,9,10,15,16-octahydro-1H-12,14-(ethanediylidene)dipyrrolo[3,2-i:3′,4′-l][1,4,7]dioxazacyclopentadecine-7-carboxamide] | –
